Reference: US9822103B2, “Inhibitors of lysine methyl transferase” (priority 2013, dated 2017)

Molecular target: recombinant EZH2-641F complex (EZH2 Y641F/EED/SUZ12/RbAp48/AEBP2) (Homo sapiens (Human), UniProt Q15910, Y641F)
Test: EZH2 Histone Methyl Transferase Assay (scintillation proximity assay)
Type: biochemical
Settings: 350 nM histone peptide substrate, 500 nM 3H-SAM, 3 hours room temperature
How it was run: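 Radiometric SPA with EZH2 Y641F/EED/SUZ12/RbAp48/AEBP2 complex (5 nM pure or 15 nM in-house), 350 nM biotinylated K(Me2) histone peptide and 500 nM [3H]-SAM in Tris pH 9.0, 3 h at room temperature. Compounds were tested at eleven concentrations; EC50 came from non-linear regression.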

Chain of recombinant EZH2-641F complex (EZH2 Y641F/EED/SUZ12/RbAp48/AEBP2) (Q15910 whole entry Y641F): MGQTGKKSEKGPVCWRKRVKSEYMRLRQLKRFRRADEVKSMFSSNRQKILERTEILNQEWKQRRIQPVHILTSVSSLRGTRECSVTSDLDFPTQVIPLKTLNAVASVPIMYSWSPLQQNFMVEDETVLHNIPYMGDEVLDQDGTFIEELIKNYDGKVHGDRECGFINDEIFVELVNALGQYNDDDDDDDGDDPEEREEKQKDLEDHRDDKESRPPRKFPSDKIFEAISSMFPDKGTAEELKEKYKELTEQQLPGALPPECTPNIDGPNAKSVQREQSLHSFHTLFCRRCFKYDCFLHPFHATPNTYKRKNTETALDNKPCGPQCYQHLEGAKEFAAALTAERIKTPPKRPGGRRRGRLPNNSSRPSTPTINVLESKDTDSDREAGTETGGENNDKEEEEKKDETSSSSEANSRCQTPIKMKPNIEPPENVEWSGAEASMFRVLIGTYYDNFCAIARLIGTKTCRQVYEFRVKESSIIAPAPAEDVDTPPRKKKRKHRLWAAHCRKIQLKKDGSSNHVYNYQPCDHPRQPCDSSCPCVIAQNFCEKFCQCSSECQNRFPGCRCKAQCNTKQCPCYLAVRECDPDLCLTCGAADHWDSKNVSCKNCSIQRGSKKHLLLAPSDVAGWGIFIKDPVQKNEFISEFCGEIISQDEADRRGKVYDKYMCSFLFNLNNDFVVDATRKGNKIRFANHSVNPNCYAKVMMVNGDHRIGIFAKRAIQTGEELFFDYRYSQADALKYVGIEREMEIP
Chain of recombinant EZH2-641F complex (EZH2 Y641F/EED/SUZ12/RbAp48/AEBP2) (O75530 whole entry partner): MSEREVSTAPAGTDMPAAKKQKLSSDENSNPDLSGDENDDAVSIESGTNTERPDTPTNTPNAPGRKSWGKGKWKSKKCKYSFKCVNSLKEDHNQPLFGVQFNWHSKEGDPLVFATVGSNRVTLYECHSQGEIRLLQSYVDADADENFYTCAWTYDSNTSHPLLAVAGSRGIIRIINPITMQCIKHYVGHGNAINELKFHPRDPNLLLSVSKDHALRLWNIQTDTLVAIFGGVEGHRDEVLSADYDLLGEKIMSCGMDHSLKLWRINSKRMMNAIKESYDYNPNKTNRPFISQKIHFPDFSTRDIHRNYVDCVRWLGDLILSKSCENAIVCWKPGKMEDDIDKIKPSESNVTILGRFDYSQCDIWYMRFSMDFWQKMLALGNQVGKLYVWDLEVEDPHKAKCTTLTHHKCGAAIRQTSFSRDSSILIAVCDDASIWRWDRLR
Chain of recombinant EZH2-641F complex (EZH2 Y641F/EED/SUZ12/RbAp48/AEBP2) (Q15022 whole entry partner): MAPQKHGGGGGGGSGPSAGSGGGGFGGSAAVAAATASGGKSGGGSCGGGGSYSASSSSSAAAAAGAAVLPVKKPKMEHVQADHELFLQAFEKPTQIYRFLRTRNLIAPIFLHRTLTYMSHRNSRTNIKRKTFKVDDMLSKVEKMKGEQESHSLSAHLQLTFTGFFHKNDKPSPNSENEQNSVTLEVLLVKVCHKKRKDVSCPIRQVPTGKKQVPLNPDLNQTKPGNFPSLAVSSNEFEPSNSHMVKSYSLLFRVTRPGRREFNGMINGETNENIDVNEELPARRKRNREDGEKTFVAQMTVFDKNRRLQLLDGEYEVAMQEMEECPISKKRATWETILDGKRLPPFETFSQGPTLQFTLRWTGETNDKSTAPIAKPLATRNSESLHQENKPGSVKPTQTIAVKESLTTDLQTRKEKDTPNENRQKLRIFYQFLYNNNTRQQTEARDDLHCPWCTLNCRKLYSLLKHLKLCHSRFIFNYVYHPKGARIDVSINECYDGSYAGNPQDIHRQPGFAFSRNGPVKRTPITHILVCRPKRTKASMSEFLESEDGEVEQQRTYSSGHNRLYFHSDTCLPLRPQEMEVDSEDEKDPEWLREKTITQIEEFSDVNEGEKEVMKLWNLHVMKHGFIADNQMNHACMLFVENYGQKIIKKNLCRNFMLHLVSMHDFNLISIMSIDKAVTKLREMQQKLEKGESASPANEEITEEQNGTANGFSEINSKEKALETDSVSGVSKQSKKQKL
Chain of recombinant EZH2-641F complex (EZH2 Y641F/EED/SUZ12/RbAp48/AEBP2) (Q09028 whole entry partner): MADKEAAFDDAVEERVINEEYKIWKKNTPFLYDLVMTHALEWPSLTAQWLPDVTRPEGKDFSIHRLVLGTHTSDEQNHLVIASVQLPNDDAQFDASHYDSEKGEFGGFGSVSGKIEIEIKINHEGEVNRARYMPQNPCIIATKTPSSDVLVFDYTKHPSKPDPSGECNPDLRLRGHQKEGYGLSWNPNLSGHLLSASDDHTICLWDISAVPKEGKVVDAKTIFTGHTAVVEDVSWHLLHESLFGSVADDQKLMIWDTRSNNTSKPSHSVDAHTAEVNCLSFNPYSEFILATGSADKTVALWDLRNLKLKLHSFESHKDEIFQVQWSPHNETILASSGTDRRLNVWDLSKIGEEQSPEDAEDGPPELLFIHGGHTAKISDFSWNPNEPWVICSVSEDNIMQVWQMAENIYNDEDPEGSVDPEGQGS
Chain of recombinant EZH2-641F complex (EZH2 Y641F/EED/SUZ12/RbAp48/AEBP2) (Q6ZN18 whole entry partner): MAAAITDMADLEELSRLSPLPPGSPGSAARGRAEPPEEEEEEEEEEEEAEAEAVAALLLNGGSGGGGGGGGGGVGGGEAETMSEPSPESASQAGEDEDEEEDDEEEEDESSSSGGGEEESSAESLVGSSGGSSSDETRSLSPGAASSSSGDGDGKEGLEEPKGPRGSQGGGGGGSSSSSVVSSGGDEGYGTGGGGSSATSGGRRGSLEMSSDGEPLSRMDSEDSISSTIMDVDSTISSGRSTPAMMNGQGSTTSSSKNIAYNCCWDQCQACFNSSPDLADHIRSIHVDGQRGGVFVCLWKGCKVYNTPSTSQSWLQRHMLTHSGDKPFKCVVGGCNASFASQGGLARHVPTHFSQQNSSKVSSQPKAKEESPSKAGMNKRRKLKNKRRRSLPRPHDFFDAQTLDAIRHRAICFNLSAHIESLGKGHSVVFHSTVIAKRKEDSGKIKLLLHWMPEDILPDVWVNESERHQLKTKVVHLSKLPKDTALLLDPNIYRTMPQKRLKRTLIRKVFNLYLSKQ

Row | SMILES | IC50 [µM]
1 | Cc1cc(C)c(CNC(=O)c2cc(-c3ccc(N4CCNCC4)nc3)c3c(c2)C2(CCCC2)CO3)c(=O)[nH]1 [Example 77, N-((4,6-Dimethyl-2-oxo-1,2-dihydropyridin-3-yl)methyl)-7-(6-(piperazin-1-yl)pyridin-3-yl)-2H-spiro[benzofuran-3,1′-cyclopentane]-5-carboxamide] | > 1
2 | Cc1cc(C)c(CNC(=O)c2cc(-c3ccc(CN4CCCCC4)cc3)c3c(c2)C2(CCCC2)CO3)c(=O)[nH]1 [Example 78, N-((4,6-Dimethyl-2-oxo-1,2-dihydropyridin-3-yl)methyl)-7-(4-(piperidin-1-ylmethyl)phenyl)-2H-spiro[benzofuran-3,1′-cyclopentane]-5-carboxamide] | > 1
3 | Cc1cc(C)c(CNC(=O)c2cc(Br)c3c(c2)CC(C(C)C)O3)c(=O)[nH]1 (centres unmarked) [Example 79, 7-Bromo-N-((4,6-dimethyl-2-oxo-1,2-dihydropyridin-3-yl)methyl)-2-isopropyl-2,3-dihydrobenzofuran-5-carboxamide] | > 1
4 | Cc1cc(C)c(CNC(=O)c2cc3c(c(-c4ccc(N5CCNCC5)nc4)c2)OC(C(C)C)C3)c(=O)[nH]1 (centres unmarked) [Example 80, N-((4,6-Dimethyl-2-oxo-1,2-dihydropyridin-3-yl)methyl)-2-isopropyl-7-(6-(piperazin-1-yl)pyridin-3-yl)-2,3-dihydrobenzofuran-5-carboxamide] | > 1
5 | CC1=C(C)Cc2cc(C(=O)NCc3c(C)cc(C)[nH]c3=O)cc(Br)c2OC1 [Example 81, 9-Bromo-N-((4,6-dimethyl-2-oxo-1,2-dihydropyridin-3-yl)methyl)-3,4-dimethyl-2,5-dihydrobenzo[b]oxepine-7-carboxamide] | > 1
6 | C=C(C)C1(C)Cc2cc(C(=O)NCc3c(C)cc(C)[nH]c3=O)cc(Br)c2O1 (centres unmarked) [Example 82, 7-Bromo-N-((4,6-dimethyl-2-oxo-1,2-dihydropyridin-3-yl)methyl)-2-methyl-2-(prop-1-en-2-yl)-2,3-dihydrobenzofuran-5-carboxamide] | > 1
7 | C=C(C)C1(C)Cc2cc(C(=O)NCc3c(C)cc(C)[nH]c3=O)cc(-c3ccc(OC)nc3)c2O1 (centres unmarked) [Example 83, N-((4,6-dimethyl-2-oxo-1,2-dihydropyridin-3-yl)methyl)-7-(6-methoxypyridin-3-yl)-2-methyl-2-(prop-1-en-2-yl)-2,3-dihydrobenzofuran-5-carboxamide] | 0.5 to 1
8 | CCCc1cc(C)[nH]c(=O)c1CNC(=O)c1cc(Br)c2c(c1)CC(C)=C(C)CO2 [Example 86, 9-Bromo-3,4-dimethyl-N-((6-methyl-2-oxo-4-propyl-1,2-dihydropyridin-3-yl)methyl)-2,5-dihydrobenzo[b]oxepine-7-carboxamide] | > 1
9 | C=CC1COc2cc(C(=O)NCc3c(C)cc(C)[nH]c3=O)cc(Br)c2O1 (centres unmarked) [Example 90, 8-Bromo-N-((4,6-dimethyl-2-oxo-1,2-dihydropyridin-3-yl)methyl)-2-vinyl-2,3-dihydrobenzo[b][1,4]dioxine-6-carboxamide] | > 1
10 | CCC1COc2cc(C(=O)NCc3c(C)cc(C)[nH]c3=O)cc(Br)c2O1 (centres unmarked) [Example 91, 8-Bromo-N-((4,6-dimethyl-2-oxo-1,2-dihydropyridin-3-yl)methyl)-2-ethyl-2,3-dihydrobenzo[b][1,4]dioxine-6-carboxamide] | > 1
11 | CCCc1cc(C)[nH]c(=O)c1CNC(=O)c1cc2c(c(-c3ccc(N4CCN(C(C)C)CC4)nc3)c1)OC(C)(C(C)C)C2 (centres unmarked) [Example 93, 2-Isopropyl-7-(6-(4-isopropylpiperazin-1-yl)pyridin-3-yl)-2-methyl-N-((6-methyl-2-oxo-4-propyl-1,2-dihydropyridin-3-yl)methyl)-2,3-dihydrobenzofuran-5-carboxamide] | < 0.5
